Laboratory results taken from patent publication US20170165317A1, “METHOD FOR MITIGATING OR ALLEVIATING SYNAPTIC AND COGNITIVE DEFICITS” (Trustees of Dartmouth College, priority 2013, published 2017).

Legend:
APP/PS1 mice = assay: Novel object location task after i.c.v. infusion by osmotic minipump; assay type: in vivo, mouse; details: VO-OHpic infused 3-4 weeks into brain ventricles
Experimental: APP/PS1 and wild-type mice were anesthetized with isofluorane, and i.c.v. delivery cannulas (brain alzet kit III) were implanted with a stereotaxic frame (KOPF Instruments) at the following coordinates according to the bregma: AP, −0.5 mm; ML, 1 mm; and DV, −2.2 mm. Osmotic minipumps (Alzet) were filled with artificial cerebrospinal fluid (aCSF) with or without PTEN inhibitor VO-OHpic (2.5 μM) and equilibrated in 0.9% NaCl at 37° C. for 48 hours. They were attached to the i.c.v. cannula tubing and subcutaneously implanted at the back. After 21 days, behavioral testing was started as described herein. One month after implantation, mice were sacrificed and the brains were sliced stained with Nissl to verify the location of the cannula. Animal manipulation and data analysis was carried out blind with respect to genotype and treatment.
Novel-Object Location. This assay was chosen because it is not intrinsically stressful. This factor, in mice, crucially affects cognitive performance in other spatial learning paradigms (e.g., Morris water maze). The memory tests were composed of three phases—“habituation”, “sample” and “choice” trials. Mice were first habituated individually to an empty open-field box (35×35×15 high cm) for 30 minutes. A sample trial (object exposure) consisted of placing a mouse into the test box which contained two identical objects. […] A recognition index was calculated by dividing the total time spent exploring the displaced object by the total time spent exploring both objects during the test session. […]
It was posited that if early Aβ-induced cognitive impairment results from a general synaptic bias toward LTD events (Selkoe (2002) Science 298:789-791), dampening this form of synaptic plasticity might prevent cognitive decay. Therefore, it was determined whether in vivo inhibition of PTEN, a lipid phosphatase that is involved in LTD (Jurado, et al. (2010) EMBO J. 29:2827-2840), would rescue cognitive deficits in APP/PS1 mice. […]

CA1 individual neurons = assay: Whole-cell LTP (pairing protocol) in CA1 neurons of organotypic slices with APPswe/lnd-EGFP expression; assay type: cell-based, rat; details: VO-OHpic 26-48 hours
Experimental: The different versions of APP (APPwt, APPswe/lnd APPMV) and EGFP were co-expressed using an internal ribosomal entry site (IRES) construct. The EGFP-tagged versions of PTEN have been described (Jurado, et al. (2010) EMBO J. 29:2827-2840). All constructs were prepared in pSinRep5 for expression using Sindbis virus. Recombinant proteins were expressed in hippocampal CA1 pyramidal neurons from organotypic slice cultures. Organotypic hippocampal slices were prepared from postnatal day 5-7 rats and cultured during 6-8 days.
The external solution (aCSF) contained 119 mM NaCl, 2.5 mM KCl, 1 mM NaH2PO4, 11 mM glucose, 26 mM NaHCO3, 4 mM MgCl2, 4 mM CaCl2, 100 μM picrotoxin and 2 μM 2-chloroadenosine, pH 7.4, and was gassed with 95% O2 and 5% CO2. Patch recording pipettes (4-7 MO) were filled with internal solution containing 115 mM CsMeSO3, 20 mM CsCl, 10 mM HEPES, 2.5 mM MgCl2, 4 mM Na2-ATP, 0.4 mM Na-GTP, 10 mM sodium phosphocreatine and 0.6 mM EGTA, pH 7.25. Bipolar stimulating electrodes were placed over Schaffer collateral fibers between 250 and 300 μm from the CA1 recorded cells, and synaptic responses were evoked with single voltage pulses (200 μs, up to 30 V). Responses were collected at −60 mV and +40 mV and averaged over 50-100 trials. LTP was induced using a pairing protocol by stimulating Schaffer collateral fibers at 3 Hz for 1.5 minutes while depolarizing the postsynaptic cell at 0 mV. All electrophysiological data were collected with pCLAMP software (Molecular Devices). Immunohistochemistry For the immunostaining protocol, hippocampal slice cultures were fixed with 4% paraformaldehyde for 24 hours washed in PBS and blocked with 5% horse serum for 2 hours. Sections were then incubated for 48 hours at 4° C. with primary antibody. […]
However, this form of depression may in principle be due to Aβ exposure, to intracellular fragments derived from APP processing, or a combination thereof. To test the role of PTEN specifically in the effects of neuron-secreted Aβ, synaptic dysfunctions were monitored in untransfected cells neighboring APPswe/lnd-expressing neurons. […]

SMILES: O=C(O)c1ncccc1O.O=C(O)c1ncccc1O.[O]=[V][O-] [VO-OHpic]
- performance in novel object location task (recognition index) (APP/PS1 mice; APP/PS1 mice, P=0.02 vs vehicle-infused APP/PS1, recognition index similar to wild-type): significant improvement
- performance in novel object location task (recognition index) (APP/PS1 mice; wild-type mice): did not affect the performance
- LTP potentiation, APPswe/lnd-EGFP infected cells (CA1 individual neurons; P=0.01): 220%
- LTP potentiation, uninfected cells exposed to Aβ (CA1 individual neurons; uninfected neurons adjacent to infected cells, P=0.0006): 339%
- magnitude of LTP in control slices (CA1 individual neurons; slices not exposed to APPswe/lnd-EGFP virus): did not affect the magnitude of LTP
